Results from patent US12208089B2, “Adjusting expression level of a gene encoding a Sirtuin protein by treating a human subject with a nitroxide” (priority 2021, dated 2025).

System: SIRT2
Experiment: Effects of Tempol on gene expression in cardiac tissue of mice, chip-based microarray
Assay type: in vivo
Settings: 5 mg/g of food from 14 to 31 months after birth
Procedure: To assess the effects of Tempol on gene expression, Tempol was administered to experimental mice at a dose of 5 mg/g of food from 14 months to 31 months after birth. Mice receiving the same food without the addition of Tempol were used as a negative control. At the age of 31 months, the experimental animals were sacrificed and the hearts were surgically removed. The expression of a broad spectrum of genes in the cardiac tissue was assessed using chip-based microarray technology. Such chips are well known in the art and are widely used to assess gene expression.

CC1(C)CC(O)CC(C)(C)N1[O] [Tempol, 4-hydroxy-2,2,6,6-tetramethylpiperidine-1-oxyl]
Fold change (SIRT2 expression in cardiac tissue after Tempol administration) (hearts at 31 months, vs. same food without Tempol, P-value 0.00): 1.16 | SIRT2 expression in the cardiac tissue (microarray, vs. negative control): statistically significant increase in expression
